Results taken from patent publication US8206756B2, “Herbal composition for inflammatory disorders” (Piramal Life Sciences Limited, priority 2005, dated 2012).

How the values were obtained:
Format in all cases: cell-based
IL-6 [1] = experiment: LPS-stimulated IL-6 release in hPBMCs (ELISA); conditions: Homo sapiens; LPS-stimulated hPBMC
Experimental: (§1) Primary screening—Human peripheral blood mononuclear cells (hPBMCs). TNF-α production by lipopolysaccharides (LPS) in hPBMCs was measured according to the method described by Jansky, L. et al (Physiol. Res. 52: 593-598, (2003)). Blood was collected from healthy donors into Potassium EDTA vacutainer tubes (BD vacutainer). The PBMCs were isolated using gradient centrifugation in Histopaque-1077 solution (Sigma). Isolated PBMCs were suspended in RPMI 1640 culture medium (Gibco BRL, Pasley, UK) containing 10% fetal bovine serum (FBS) (Hyclone, Utah, USA), 100 U/ml penicillin (Sigma Chemical Co. St Louis, Mo.) and 100 μg/ml streptomycin (Sigma Chemical Co. St Louis, Mo.). The cell concentration was adjusted to 1×10^6 cells/ml. The viability as determined by trypan blue dye exclusion was uniformly ≧98%. […] The % inhibition was recorded. Percent cytotoxicity of the test samples compared to control was evaluated.
(§2) The effect of the plant extract on the proinflammatory cytokines: TNF-α, interleukin-1β (IL-1β), interleukin-6 (IL-6) and interleukin-8 (IL-8) was measured using the supernatants generated in the primary screening assay. […]
(§3) The effect of the Compound 1, on the proinflammatory cytokines: TNF-α interleukin-1β (IL-1β), interleukin-6 (IL-6) and interleukin-8 (IL-8) was measured using the supernatants generated in the primary screening assay. […]

IL-1β = experiment: LPS-stimulated IL-1β release in hPBMCs (ELISA); conditions: Homo sapiens; LPS-stimulated hPBMC
Experimental: as §1, §2, §3

ICAM-1 = experiment: Cell-ELISA for adhesion molecule expression in HUVECs: ICAM-1; conditions: Homo sapiens; TNF-α-induced surface expression, HUVEC
Experimental: The assay was designed on the basis of reference Transplantation, Vol 63(5), 759-764, 1997 with modifications.
Human Umbilical Vein Endothelial Cells (HUVECs) were obtained from Cascade Biologics and were maintained in M200 (Cascade Biologics, Portland, Oreg.) supplemented with low serum growth supplement (LSGS) at 37° C. in a 5% CO2 incubator. U937 cells (ATCC, Manassas, Va.) were grown in the RPMI 1640 medium supplemented with 10% FBS (Hyclone, Logan, Utah). Recombinant human TNFα, antibodies to VCAM-1, ICAM-1, E-Selectin were obtained from R&D Systems and LPS was obtained from Sigma (St. Louis, Mo.).
HUVECs were plated at […] in 96-well fibronectin-coated plates. The cells were stimulated with TNF-α (10 ng/ml) or LPS (1 μg/ml), 30 min after addition of test compound. After stimulation, cells (E-Selectin and ICAM-1) were fixed with paraformaldehyde in phosphate buffer saline (PBS). Non specific binding was blocked by 2% bovine serum albumin (BSA) in phosphate buffer saline (PBS) for 1 h, and the cells were incubated with primary antibody for 2 h. […] After washing, seven times, 3,3′5,5′-tetramethylbenzidine liquid substrate (TMB substrate) was added and the optical density of each well was determined at 450 nm using a microtitre plate reader (Spectramax, Molecular Devices, Calif.). […] Percent inhibition of the test sample compared to the control is evaluated. […]

IL-6 [2] = experiment: IL-6 production by synovial cells from a RA patient; conditions: Homo sapiens, Synovial cell, 10 hours
Experimental: Cytokine production by synovial cells obtained from a rheumatoid arthritis (RA) patient undergoing knee replacement surgery was measured according to the method described by Brennan, F. M. et al (The Lancet. July 29: 244-247, (1989)). The synovial membrane tissue was digested in DMEM (Gibco) containing 10% FBS, 100 U/ml penicillin and 100 μg/ml streptomycin, 4 mg/ml collagenase type I (Worthington), 1.5 μg/ml Dnase type I (Sigma) and 15 U/ml heparin and incubated at 37° C. for 3 hours. After incubation, the digested tissue was filtered through a 70-μm membrane and the cells washed 3 times in complete medium (DMEM with 10% FBS). The synovial cells were cultured at 1×10^6 cells/ml in presence/absence of the test sample for 10 hours. The supernatants were harvested by centrifugation and levels of the cytokines (TNF-α, IL-1β, IL-6, IL-8) measured by ELISA. To assess the cytotoxic effect of the plant extracts, the cellular viability test was performed using MTS reagent. The 50% inhibitory concentration (IC50) values were calculated by a nonlinear regression method using GraphPad software (Prism 3.03).
Effect on proinflammatory cytokines produced by synovial cells obtained from a RA patient was studied for compound 1 as described by procedure of example 8.

IC50 (IL-6 [1]): 1600 nM | IC50 (IL-1β): 400 nM | IC50 (ICAM-1): 520 nM | IC50 (IL-6 [2]): 1400 nM
Structure (SMILES): C=C1C(=O)OC2C3=C(C)CCCC3(C)CCC12O (stereo not shown) [Compound 1, 3a-hydroxy-5a,9-dimethyl-3-methylene-3a,4,5,5a,6,7,8,9b-octahydro-3H-naphtho[1,2-b]furan-2-one]
